Literature values as cited in PubChem BioAssay AID1259409 (Chemical Carcinogenesis Research Information System (CCRIS), 2018).

System: rodent chemically induced tumor inhibition, incidence and multiplicity
Test: CCRIS tumor inhibitor studies

For `CC1=C(/C=C/C(C)=C/C=C/C(C)=C\C(=O)O)C(C)(C)CCC1`, the “tumour outcome (control, treated, inhibition, significance)” value (Carcinogen: N-BUTYL-N-(4-HYDROXYBUTYL)NITROSAMINE, 3817-11-6, Dose [Inhibitor]: 200 MG/KG DIET DAILY STARTING 7 D AFTER LAST CARCINOGEN DOSE AND CONTINUING THROUGH THE END OF STUDY (STUDY DURATION: 6, Route [Inhibitor]: ORAL, Species: MOUSE, Strain/Sex: C57BL/MALE, Target Tissue: Type of Lesion: URINARY BLADDER: TRANSITIONAL AND SQUAMOUS CELL CARCINOMA, Dose [Carcinogen]: 7.5 MG 2/WK FOR 6 WK, Promoter: NONE USED) is listed as 8/24 (33%), 0/19 (0%), 100%, p<0.01, the “tumour outcome (control, treated, inhibition, significance)” value (Carcinogen: N-BUTYL-N-(4-HYDROXYBUTYL)NITROSAMINE, 3817-11-6, Dose [Inhibitor]: 200 MG/KG DIET DAILY STARTING 7 D AFTER LAST CARCINOGEN INTUBATION AND CONTINUING THROUGH THE END OF STUDY (STUDY DURATI, Route [Inhibitor]: ORAL, Species: MOUSE, Strain/Sex: C57BL/MALE, Target Tissue: Type of Lesion: URINARY BLADDER: NEOPLASM (CARCINOMA, NONINVASIVE TRANSITIONAL CELL PAPILLOMA), Dose [Carcinogen]: 10 MG 2/WK FOR 7 WK, Promoter: NONE USED) is listed as 12/22 (55%), 8/25 (32%), 42%, not significant and the outcome (Carcinogen: N-BUTYL-N-(4-HYDROXYBUTYL)NITROSAMINE, 3817-11-6, Dose [Inhibitor]: 200 MG/KG DIET DAILY STARTING 7 D AFTER LAST CARCINOGEN INTUBATION AND CONTINUING THROUGH THE END OF STUDY (STUDY DURATI, Route [Inhibitor]: ORAL, Species: MOUSE, Strain/Sex: C57BL/MALE, Target Tissue: Type of Lesion: URINARY BLADDER: SQUAMOUS CELL CARCINOMA, Dose [Carcinogen]: 7.5 MG 2/WK FOR 6 WK, Promoter: NONE USED) is listed as 6/24 (25%), 0/19 (0%), p<0.05. The “tumour outcome (control, treated, inhibition, significance)” value (Carcinogen: N-BUTYL-N-(4-HYDROXYBUTYL)NITROSAMINE, 3817-11-6, Dose [Inhibitor]: 200 MG/KG DIET DAILY STARTING 7 D AFTER LAST CARCINOGEN INTUBATION AND CONTINUING THROUGH THE END OF STUDY (STUDY DURATI, Route [Inhibitor]: ORAL, Species: MOUSE, Strain/Sex: C57BL/MALE, Target Tissue: Type of Lesion: URINARY BLADDER: SQUAMOUS CELL CARCINOMA, Dose [Carcinogen]: 10 MG 2/WK FOR 7 WK, Promoter: NONE USED) was 6/22 (27%), 5/25 (20%), 26%, not significant, the “tumour outcome (control, treated, inhibition, significance)” value (Carcinogen: N-BUTYL-N-(4-HYDROXYBUTYL)NITROSAMINE, 3817-11-6, Dose [Inhibitor]: 200 MG/KG DIET DAILY STARTING 7 D AFTER LAST CARCINOGEN INTUBATION AND CONTINUING THROUGH THE END OF STUDY (STUDY DURATI, Route [Inhibitor]: ORAL, Species: MOUSE, Strain/Sex: C57BL/MALE, Target Tissue: Type of Lesion: URINARY BLADDER: TRANSITIONAL AND SQUAMOUS CELL CARCINOMA, Dose [Carcinogen]: 10 MG 2/WK FOR 7 WK, Promoter: NONE USED) was 10/22 (45%), 7/25 (28%), 38%, not significant and the “tumour outcome (control, treated, inhibition, significance)” value (Carcinogen: N-BUTYL-N-(4-HYDROXYBUTYL)NITROSAMINE, 3817-11-6, Dose [Inhibitor]: 240 MG/KG DIET DAILY STARTING 1, 5 OR 9 WK AFTER LAST CARCINOGEN INTUBATION AND CONTINUING THROUGH THE END OF STUDY (STU, Route [Inhibitor]: ORAL, Species: RAT, Strain/Sex: F344/MALE, Target Tissue: Type of Lesion: URINARY BLADDER: TRANSITIONAL CELL CARCINOMA, Dose [Carcinogen]: 100 MG 2/WK FOR 6 WK, Promoter: NONE USED) was 53%, 47%, 11%, not significant. For the same compound, the “tumour outcome (control, treated, inhibition, significance)” value (Carcinogen: N-BUTYL-N-(4-HYDROXYBUTYL)NITROSAMINE, 3817-11-6, Dose [Inhibitor]: 240 MG/KG DIET DAILY STARTING 1, 5 OR 9 WK AFTER LAST CARCINOGEN INTUBATION AND CONTINUING THROUGH THE END OF STUDY (STU, Route [Inhibitor]: ORAL, Species: RAT, Strain/Sex: F344/MALE, Target Tissue: Type of Lesion: URINARY BLADDER: TRANSITIONAL CELL CARCINOMA, Dose [Carcinogen]: 150 MG 2/WK FOR 6 WK, Promoter: NONE USED) was 82%, 65%, 21%, p<0.01, the “tumour outcome (control, treated, inhibition, significance)” value (Carcinogen: N-BUTYL-N-(4-HYDROXYBUTYL)NITROSAMINE, 3817-11-6, Dose [Inhibitor]: 240 MG/KG DIET DAILY STARTING 1, 5 OR 9 WK AFTER LAST CARCINOGEN INTUBATION AND CONTINUING THROUGH THE END OF STUDY (STU, Route [Inhibitor]: ORAL, Species: RAT, Strain/Sex: F344/MALE, Target Tissue: Type of Lesion: URINARY BLADDER: TRANSITIONAL CELL CARCINOMA, Dose [Carcinogen]: 200 MG 2/WK FOR 6 WK, Promoter: NONE USED) was 94%, 74%, 21%, p<0.001 and the “tumour outcome (control, treated, inhibition, significance)” value (Carcinogen: N-BUTYL-N-(4-HYDROXYBUTYL)NITROSAMINE, 3817-11-6, Dose [Inhibitor]: 240 MG/KG DIET DAILY STARTING 1 WK AFTER LAST CARCINOGEN DOSE AND CONTINUING FOR DURATION OF STUDY (STUDY DURATION: 6 MO, Route [Inhibitor]: ORAL, Species: RAT, Strain/Sex: F344/MALE, Target Tissue: Type of Lesion: BLADDER: TRANSITIONAL CELL CARCINOMA (HIGH GRADE), Dose [Carcinogen]: 200 MG IN 0.5 ML OF 20% ETHANOL 2/WK FOR 6 WK, Promoter: NONE USED) was 9/22 (41%), 4/21(19%), 54%, p<.05. The “tumour outcome (control, treated, inhibition, significance)” value (Carcinogen: N-METHYL-N'-NITRO-N-NITROSOGUANIDINE, 70-25-7, Dose [Inhibitor]: 34 NMOL ONCE 0.5 HR BEFORE CARCINOGEN APPLICATION (STUDY DURATION: 25 WK), Route [Inhibitor]: DERMAL, Species: MOUSE, Strain/Sex: CD-1/FEMALE, Target Tissue: Type of Lesion: SKIN: PAPILLOMA, Dose [Carcinogen]: 5 UMOL IN 0.2 ML ACETONE ONCE 0.5 HR AFTER AGENT TREATMENT, Promoter: 12-O-TETRADECANOYLPHORBOL-13-ACETATE, 16561-29-8) was 92%, 96%, -4%, not significant and the “tumour outcome (control, treated, inhibition, significance)” value (Carcinogen: N-METHYL-N-NITROSOUREA, 684-93-5, Dose [Inhibitor]: 12.5 MG/KG DAILY IN DIET STARTING 1 D AFTER LAST CARCINOGEN INJECTION AND CONTINUING FOR 256 D (STUDY DURATION: 285 D), Route [Inhibitor]: ORAL, Species: RAT, Strain/Sex: WISTAR-LEWIS/FEMALE, Target Tissue: Type of Lesion: URINARY BLADDER: PAPILLARY UROTHELIAL TUMOR, Dose [Carcinogen]: 1.5 MG IN 0.15 ML SALINE INJECTED INTO A SURGICALLY EXPOSED BLADDER 1/2 WK FOR A TOTAL OF 3 INJECTIONS, Promoter: NONE USED) was 8/30 (27%), 2/21 (10%), 63%, p<0.05.
